Each compound was assayed against MAPK14 (human) (UniProt Q16539) (assay: Inhibition of LPS Induced TNF-alpha Production in THP1 Cells).
Sequence of MAPK14 (human) (Q16539 whole entry, looked up): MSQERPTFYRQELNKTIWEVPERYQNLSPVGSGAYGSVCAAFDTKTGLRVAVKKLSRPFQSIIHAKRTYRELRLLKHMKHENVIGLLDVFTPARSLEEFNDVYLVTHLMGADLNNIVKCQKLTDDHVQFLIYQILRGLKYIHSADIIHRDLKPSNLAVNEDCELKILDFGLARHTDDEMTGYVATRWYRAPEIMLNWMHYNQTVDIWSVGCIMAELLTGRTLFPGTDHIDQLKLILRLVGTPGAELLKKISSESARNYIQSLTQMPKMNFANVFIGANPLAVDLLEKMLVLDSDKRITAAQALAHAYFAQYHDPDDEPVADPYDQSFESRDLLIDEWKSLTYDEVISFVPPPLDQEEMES

| Structure (SMILES) | IC50 |
| --- | --- |
| O=c1c(-c2ccc(F)cc2)c(-c2ccnc(Nc3ccccn3)n2)n2n1CCC2 | 600 nM |
| O=c1c(-c2ccc(F)cc2)c(-c2ccnc(Nc3c(Cl)ncnc3Cl)n2)n2n1CCC2 | 476 nM |
| O=c1c(-c2ccc(F)cc2)c(-c2ccnc(NCc3cccnc3)n2)n2n1CCC2 | 121 nM |
| O=c1c(-c2ccc(F)cc2)c(-c2ccnc(NCC3CC3)n2)n2n1CCC2 | 94 nM |
| O=c1c(-c2ccc(F)cc2)c(-c2ccnc(NCc3ccccc3)n2)n2n1CCC2 | 74 nM |
| COC(=O)[C@H](Nc1nccc(-c2c(-c3ccc(F)cc3)c(=O)n3n2CCC3)n1)c1ccccc1 | 147 nM |
| O=c1c(-c2ccc(F)cc2)c(-c2ccnc(NC3CC3)n2)n2n1CCC2 | 78 nM |
| COC[C@H](C)Nc1nccc(-c2c(-c3ccc(F)cc3)c(=O)n3n2CCCC3)n1 | 543 nM |
| C[C@H](Nc1nccc(-c2c(-c3ccc(F)cc3)c(=O)n3n2CCCC3)n1)C(C)(C)O | 260 nM |
| CC[C@H](C)Nc1nccc(-c2c(-c3ccc(F)cc3)c(=O)n3n2CCCC3)n1 | 106 nM |
| COCCCNc1nccc(-c2c(-c3ccc(F)cc3)c(=O)n3n2CCC3)n1 | 301 nM |
| O=c1c(-c2ccc(F)cc2)c(-c2ccnc(Nc3ccccc3)n2)n2n1CCC2 | 80 nM |
| O=c1c(-c2ccc(F)cc2)c(-c2ccnc(NCc3ccccn3)n2)n2n1CCC2 | 263 nM |

Now from value to compound:

| IC50 | Structure (SMILES) |
| --- | --- |
| 30 nM | C=CCNc1nccc(-c2c(-c3ccc(F)cc3)c(=O)n3n2CCC3)n1 |
| 3 nM | C[C@H](Nc1nccc(-c2c(-c3ccc(F)cc3)c(=O)n3n2CCC3)n1)c1ccccc1 |
| 27 nM | C[C@@H](Nc1nccc(-c2c(-c3ccc(F)cc3)c(=O)n3n2CCC3)n1)c1ccccc1 |
| 29 nM | C[C@H](Nc1nccc(-c2c(-c3ccc(F)cc3)c(=O)n3n2CCCC3)n1)c1ccccc1 |
| 2 nM | CC[C@H](C)Nc1nccc(-c2c(-c3ccc(F)cc3)c(=O)n3n2CCC3)n1 |
| 50 nM | COC[C@H](C)Nc1nccc(-c2c(-c3ccc(F)cc3)c(=O)n3n2CCC3)n1 |
| 37 nM | Cc1ccc([C@H](C)Nc2nccc(-c3c(-c4ccc(F)cc4)c(=O)n4n3CCC4)n2)cc1 |
| 6 nM | O=c1c(-c2ccc(F)cc2)c(-c2ccnc(Nc3c(F)cccc3F)n2)n2n1CCC2 |
| 38 nM | C[C@H](Nc1nccc(-c2c(-c3ccc(F)cc3)c(=O)n3n2CCC3)n1)C1CCCCC1 |
| 24 nM | CC(C)(C)Nc1nccc(-c2c(-c3ccc(F)cc3)c(=O)n3n2CCC3)n1 |
| 4 nM | O=c1c(-c2ccc(F)cc2)c(-c2ccnc(Nc3c(Cl)cccc3Cl)n2)n2n1CCC2 |

Each compound was assayed against MAPK14 (human) (UniProt Q16539) (assay: Inhibition of LPS Induced TNF-alpha Production in Human PBMC).

| IC50 | Structure (SMILES) |
| --- | --- |
| 8 nM | C[C@H](Nc1nccc(-c2c(-c3ccc(F)cc3)c(=O)n3n2CCC3)n1)C(C)(C)O |
| 0.4 nM | C[C@H](Nc1nccc(-c2c(-c3ccc(F)cc3)c(=O)n3n2CCC3)n1)c1ccccc1 |
| 16 nM | COC[C@H](C)Nc1nccc(-c2c(-c3ccc(F)cc3)c(=O)n3n2CCC3)n1 |

The compounds below were run against MAPK14 (human) (UniProt Q16539) (assay: Inhibition of LPS Induced IL-1Beta Production in Huamn PBMC).

| IC50 | Structure (SMILES) |
| --- | --- |
| 42 nM | C[C@H](Nc1nccc(-c2c(-c3ccc(F)cc3)c(=O)n3n2CCC3)n1)C(C)(C)O |
| 0.8 nM | C[C@H](Nc1nccc(-c2c(-c3ccc(F)cc3)c(=O)n3n2CCC3)n1)c1ccccc1 |
| 39 nM | COC[C@H](C)Nc1nccc(-c2c(-c3ccc(F)cc3)c(=O)n3n2CCC3)n1 |

Source: the Kinase Knowledgebase extract (Sharma et al. 2016)
